In one assay the target is human FPR2 (Homo sapiens (Human), UniProt P25090). The experiment in a line: FPR2 cyclic adenosine monophosphate (cAMP) assay. The assay is classed as cell-based. The note with it: CHO cells overexpressing human FPR2; forskolin 5 μM, IBMX 200 μM; inhibition of cAMP production, HTRF; read-out: hFPR2 cAMP2 EC50. An excerpt: (§1) N-formyl peptide receptors (FPRs) are a family of chemo attractant receptors that facilitate leukocyte response during inflammation. FPRs belong to the seven-transmembrane G protein-coupled receptor superfamily and are linked to inhibitory G-proteins (Gi). Three family members (FPR1, FPR2 and FPR3) have been identified in humans and are predominantly found in myeloid cells with varied distribution and have also been reported in multiple organs and tissues. After agonist binding, the FPRs activate a multitude of physiological pathways, such as intra cellular signaling transduction, Ca^21 mobilization and transcription. The family interacts with a diverse set of ligands that includes proteins, polypeptides and fatty acid metabolites which activate both pro-inflammatory and pro-resolution downstream responses. FPR2 and FPR1 Cyclic Adenosine Monophosphate (cAMP) Assays were used to measure the activity of the compounds in this patent.
(§2) FPR2 and FPR1 Cyclic Adenosine Monophosphate (cAMP) Assays. A mixture of forskolin (5 μM final for FPR2 or 10 μM final for FPR1) and IBMX (200 μM final) were added to 384-well Proxiplates (Perkin-Elmer) pre-dotted with test compounds in DMSO (1% final) at final concentrations in the range of 0.020 nM to 100 μM. Chinese Hamster Ovary cells (CHO) overexpressing human FPR1 or human FPR2 receptors were cultured in F-12 (Ham's) medium supplemented with 10% qualified FBS, 250 μg/ml zeocin and 300 μg/ml hygromycin (Life Technologies). Reactions were initiated by adding 2,000 human FPR2 cells per well or 4,000 human FPR1 cells per well in Dulbecco's PBS (with calcium and magnesium) (Life Technologies) supplemented with 0.1% BSA (Perkin-Elmer). The reaction mixtures were incubated for 30 min at room temperature. The level of intracellular cAMP was determined using the HTRF HiRange cAMP assay reagent kit (Cisbio) according to manufacturer's instruction. Solutions of cryptate conjugated anti-cAMP and d2 flurorophore-labelled cAMP were made in a supplied lysis buffer separately. Upon completion of the reaction, the cells were lysed with equal volume of the d2-cAMP solution and anti-cAMP solution. After a 1-h room temperature incubation, time-resolved fluorescence intensity was measured using the Envision (Perkin-Elmer) at 400 nm excitation and dual emission at 590 nm and 665 nm. A calibration curve was constructed with an external cAMP standard at concentrations ranging from 1 μM to 0.1 μM by plotting the fluorescent intensity ratio from 665 nm emission to the intensity from the 590 nm emission against cAMP concentrations. The potency and activity of a compound to inhibit cAMP production was then determined by fitting to a 4-parametric logistic equation from a plot of cAMP level versus compound concentrations.
For orientation: Cyclic AMP is a second messenger, typically raised through Gs and lowered through Gi signalling.

The target of the next assay is human FPR1 (Homo sapiens (Human), UniProt P21462). Put plainly: FPR1 cyclic adenosine monophosphate (cAMP) assay. The assay is classed as cell-based. The note with it: CHO cells overexpressing human FPR1; forskolin 10 μM, IBMX 200 μM; inhibition of cAMP production, HTRF; read-out: hFPR1 cAMP EC50.
Description: as §1, §2

The structures appear in SMILES notation. Some results are limits rather than exact numbers.

As a reminder, the EC50 is the midpoint of the concentration-response curve.

Sequence of human FPR2 (P25090 whole entry): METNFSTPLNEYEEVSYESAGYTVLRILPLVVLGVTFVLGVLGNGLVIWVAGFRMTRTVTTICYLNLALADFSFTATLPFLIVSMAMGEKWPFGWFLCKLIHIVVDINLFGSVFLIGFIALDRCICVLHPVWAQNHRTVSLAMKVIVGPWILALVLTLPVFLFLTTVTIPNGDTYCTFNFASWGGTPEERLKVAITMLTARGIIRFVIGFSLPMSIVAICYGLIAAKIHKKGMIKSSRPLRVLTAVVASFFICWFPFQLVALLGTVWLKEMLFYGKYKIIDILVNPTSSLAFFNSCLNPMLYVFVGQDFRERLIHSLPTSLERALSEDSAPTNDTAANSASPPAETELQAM
Sequence of human FPR1 (P21462 whole entry): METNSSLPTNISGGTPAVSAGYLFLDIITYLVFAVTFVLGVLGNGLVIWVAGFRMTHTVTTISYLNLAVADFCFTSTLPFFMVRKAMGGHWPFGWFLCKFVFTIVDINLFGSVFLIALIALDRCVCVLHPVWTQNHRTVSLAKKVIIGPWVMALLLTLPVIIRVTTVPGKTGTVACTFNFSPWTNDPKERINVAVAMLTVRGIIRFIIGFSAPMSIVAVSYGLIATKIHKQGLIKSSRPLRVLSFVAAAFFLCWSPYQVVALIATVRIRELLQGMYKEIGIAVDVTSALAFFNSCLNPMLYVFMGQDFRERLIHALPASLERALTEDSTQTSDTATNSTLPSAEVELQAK

For the compound `COc1cc(F)c([C@H]2[C@H](NC(=O)NC3CCc4cc(OC)ccc4C3)C(=O)N(c3ncccc3OC)[C@H]2C)c(F)c1` (stereo partly drawn) [Example 15], the results for the concentration for a half-maximal effect (EC50) at human FPR2 and at human FPR1 were 1.5 nM and 13.2 nM, respectively.
With `COCCn1cccc(N2C[C@@H](c3c(F)cc(OC)cc3F)[C@H](NC(=O)NC3CCc4cc(OC)ccc4C3)C2=O)c1=O` (stereo partly drawn) [Example 53], the 50% effective concentration (EC50) at human FPR2 was 13 nM; on human FPR1, 24.6 nM.
Consider `COCCNc1ccnc(N2C[C@@H](c3c(F)cc(OC)cc3F)[C@H](NC(=O)N[C@H]3CC[C@H](C(F)F)CC3)C2=O)c1C(F)(F)F` [Example 69], for which the EC50 at human FPR2 was 5.2 nM; on human FPR1 it was 1800 nM.
As for `COc1cc(F)c([C@@H]2CN(c3nccc(NCC(C)(C)O)c3C(F)(F)F)C(=O)[C@H]2NC(=O)N[C@H]2CC[C@H](C(F)F)CC2)c(F)c1` [Example 104], the half-maximal effective concentration (EC50) on human FPR2 came to 39 nM; on human FPR1 it was 5000 nM.
Regarding `COc1cc(F)c([C@@H]2CN(c3cccn(CC(O)C(F)(F)F)c3=O)C(=O)[C@H]2NC(=O)NC2CCc3cc(OC)ccc3C2)c(F)c1` (single isomer, unassigned) [Example 78], the half-maximal effective concentration (EC50) turned out to be 50 nM at human FPR2 and 100 nM on human FPR1.
The matching figures for `COc1cc(F)c([C@H]2[C@H](NC(=O)N[C@H]3CC[C@H](C(F)F)CC3)C(=O)N(c3ncccc3OC)[C@H]2C)c(F)c1` [Example 48]: 7.4 nM and 600 nM.
With `CNC(=O)CNc1ccnc(N2C[C@@H](c3c(F)cc(OC)cc3F)[C@H](NC(=O)N[C@H]3CC[C@H](C(F)F)CC3)C2=O)c1C(F)(F)F` [Example 72], the half-maximal effective concentration (EC50) was 25 nM at human FPR2 and over 1000 nM at human FPR1.
On to `COCCn1cccc(N2C(=O)[C@@H](NC(=O)NC3CCc4cc(Cl)ccc4C3)[C@H](c3c(F)cc(OC)cc3F)[C@@H]2C)c1=O` (stereo partly drawn) [Example 27], for which the concentration giving a half-maximal response (EC50) at human FPR2 came out at 2.9 nM; on human FPR1 it was 2.5 nM.
In the case of `COCC(CO)n1cccc(N2C[C@@H](c3c(F)cc(OC)cc3F)[C@H](NC(=O)NC3CCc4cc(OC)ccc4C3)C2=O)c1=O` (single isomer, unassigned) [Example 3], the half-maximal effective concentration (EC50) is 6 nM at human FPR2 and 20 nM on human FPR1.
Regarding `COc1cc(F)c([C@@H]2CN(c3c(C)ccn(CCO)c3=O)C(=O)[C@H]2NC(=O)NC2CCc3cc(OC)ccc3C2)c(F)c1` (single isomer, unassigned) [Example 84], the EC50 on human FPR2 was 1.4 nM; at human FPR1, 0.3 nM.
For the compound `COCCn1cccc(N2C[C@@H](c3ccc(OC)cc3)[C@H](NC(=O)NC3CCc4cc(Cl)ccc4C3)C2=O)c1=O` (stereo partly drawn) [Example 16], the concentration giving a half-maximal response (EC50) at human FPR2 is 1.7 nM; at human FPR1, 4.7 nM.
Regarding `COc1cc(F)c([C@@H]2CN(c3nccc(N4CCN5CCCC5C4)c3C(F)(F)F)C(=O)[C@H]2NC(=O)N[C@H]2CC[C@H](C(F)F)CC2)c(F)c1` (single isomer, unassigned) [Example 103], the half-maximal effective concentration (EC50) on human FPR2 was 17 nM; at human FPR1 it was 2100 nM.
On to `COCC(CO)n1cccc(N2C[C@@H](c3c(F)cc(OC)cc3F)[C@H](NC(=O)NC3CCc4cc(OC)ccc4C3)C2=O)c1=O` (stereo partly drawn) [Example 81], for which the concentration giving a half-maximal response (EC50) on human FPR2 was 5.9 nM; at human FPR1, 1.5 nM.
Consider `CCn1cccc(N2C[C@@H](c3ccc(OC)cc3)[C@H](NC(=O)NC3CCc4cc(Cl)ccc4C3)C2=O)c1=O` (stereo partly drawn) [Example 6], for which the results for the EC50 on human FPR2 and at human FPR1 were 0.4 nM and 0.1 nM, respectively.
For the compound `COc1cc(F)c([C@@H]2CN(c3nccc(N4CC(C)(O)C4)c3C(F)(F)F)C(=O)[C@H]2NC(=O)N[C@H]2CC[C@H](C(F)F)CC2)c(F)c1` [Example 101], the figures for the EC50 on human FPR2 and on human FPR1 were 1.6 nM and over 10000 nM, respectively.
As for `COCCn1ccc(OC)c(N2C[C@@H](c3c(F)cc(OC)cc3F)[C@H](NC(=O)NC3CCc4cc(Cl)ccc4C3)C2=O)c1=O` (stereo partly drawn) [Example 38], the EC50 is 4.5 nM at human FPR2 and 1.3 nM on human FPR1.
For the compound `COc1cc(F)c([C@@H]2CN(c3cccn(CCO)c3=O)C(=O)[C@H]2NC(=O)NC2CCc3cc(Cl)ccc3C2)c(F)c1` (stereo partly drawn) [Example 14], the EC50 at human FPR2 is 1.4 nM; at human FPR1, 0.8 nM.
Regarding `COc1cc(F)c([C@@H]2CN(c3nccc(N4C[C@@H]5C[C@H]4CN5C)c3C(F)(F)F)C(=O)[C@H]2NC(=O)N[C@H]2CC[C@H](C(F)F)CC2)c(F)c1` (single isomer, unassigned) [Example 96], the values for the EC50 on human FPR2 and on human FPR1 were 4.6 nM and 3400 nM, respectively.
Regarding `COCCn1cccc(N2C(=O)[C@@H](NC(=O)NC3CCc4cc(OC)ccc4C3(C)C)[C@H](c3c(F)cc(OC)cc3F)[C@@H]2C)c1=O` (stereo partly drawn) [Example 40], the values for the concentration giving a half-maximal response (EC50) at human FPR2 and on human FPR1 were 5.3 nM and 200 nM, respectively.
The matching figures for `CNC(=O)C(C)Nc1ccnc(N2C[C@@H](c3c(F)cc(OC)cc3F)[C@H](NC(=O)N[C@H]3CC[C@H](C(F)F)CC3)C2=O)c1C(F)(F)F` (single isomer, unassigned) [Example 75]: 21 nM and over 1000 nM.
`COc1cc(F)c([C@@H]2CN(c3nccc(NC4CCOCC4)c3C(F)(F)F)C(=O)[C@H]2NC(=O)N[C@H]2CC[C@H](C(F)F)CC2)c(F)c1` [Example 68]: the EC50 at human FPR2 is 27 nM; at human FPR1, 4800 nM.
The matching figures for `COc1cc(F)c([C@@H]2CN(c3ncccc3C(F)(F)F)C(=O)[C@H]2NC(=O)NC2COc3cc(OC)ccc3C2)c(F)c1` (stereo partly drawn) [Example 28]: 3.3 nM and 3 nM.
On the same counts, the results for `COc1cc(F)c([C@@H]2CN(c3cccn(CCO)c3=O)C(=O)[C@H]2NC(=O)N[C@H]2CC[C@H](C(F)F)CC2)c(F)c1` [Example 65] are 55 nM and 5000 nM.
`COc1cc(F)c([C@H]2[C@H](NC(=O)NC3CCc4cc(OC)ccc4C3)C(=O)N(c3cccn(CCO)c3=O)[C@H]2C)c(F)c1` (single isomer, unassigned) [Example 89]: the concentration giving a half-maximal response (EC50) at human FPR2 stood at 7.1 nM; on human FPR1, 4.3 nM.
Consider `COc1cc(F)c([C@H]2[C@H](NC(=O)NC3CCc4cc(OC)ccc4C3(C)C)C(=O)N(c3ncccc3C(F)(F)F)[C@H]2C)c(F)c1` (stereo partly drawn) [Example 59], for which the results for the EC50 on human FPR2 and at human FPR1 were 29 nM and 470 nM, respectively.
Regarding `COCCn1cccc(N2C(=O)[C@@H](NC(=O)NC3CCc4cc(OC)ccc4C3)[C@H](c3c(F)cc(OC)cc3F)[C@@H]2C)c1=O` (stereo partly drawn) [Example 29], the EC50 was 3.3 nM at human FPR2 and 2.4 nM on human FPR1.
For `COc1cc(F)c([C@@H]2CN(c3ncccc3C(F)(F)F)C(=O)[C@H]2NC(=O)NC2CCC3(CC2)CC3)c(F)c1` [Example 67], the EC50 at human FPR2 was 97 nM; at human FPR1 it was over 10000 nM.
In the case of `CNC(=O)C(C)Nc1ccnc(N2C[C@@H](c3c(F)cc(OC)cc3F)[C@H](NC(=O)N[C@H]3CC[C@H](C(F)F)CC3)C2=O)c1C(F)(F)F` (single isomer, unassigned) [Example 76], the concentration for a half-maximal effect (EC50) at human FPR2 was 23 nM; at human FPR1, over 1000 nM.
Turning to `COc1cc(F)c([C@@H]2CN(c3nccc(N4CCOCC4)c3C(F)(F)F)C(=O)[C@H]2NC(=O)N[C@H]2CC[C@H](C(F)F)CC2)c(F)c1` [Example 108], the EC50 at human FPR2 amounted to 670 nM; on human FPR1, 3500 nM.
On the same counts, the results for `CCn1nccc(N2C[C@@H](c3c(F)cc(OC)cc3F)[C@H](NC(=O)NC3CCc4cc(OC)ccc4C3)C2=O)c1=O` (single isomer, unassigned) [Example 87] are 3.2 nM and 4.8 nM.
